Measured values taken from ChEMBL document CHEMBL5360555, “Structure-based discovery of novel α-aminoketone derivatives as dual p53-MDM2/MDMX inhibitors for the treatment of cancer” (Eur J Med Chem, 2023).
The source made the active and inactive calls. The calls are words filed in the database; no cut-off is given here.

Assays:
HCT-116 [1] = assay: Antiproliferative activity against human HCT-116 cells overexpressing MDM2 assessed as cell growth inhibition incubated for 72 hrs by CCK-8 assay; assay type: functional, cell-based; details: HCT-116, 72 h
HCT-116 [2] = assay: Antiproliferative activity against human HCT-116 cells overexpressing MDM2 assessed as cell growth inhibition incubated at 10 uM for 72 hrs by CCK-8 assay relative to control; assay type: functional
HCT-116 [3] = assay: Inhibition of colony formation in human HCT-116 cells incubated at 0.6 uM for 8 to 15 days measured by crystal violet staining based microscopic analysis; assay type: functional, cell-based; details: time 8-15 day
[4] = Antiproliferative activity against human HCT116-p53-null cells overexpressing MDMX assessed as cell growth inhibition incubated for 72 hrs by CCK-8 assay; assay type: functional, cell-based
SH-SY5Y [5] = assay: Inhibition of colony formation in human SH-SY5Y cells incubated at 0.6 uM for 8 to 15 days measured by crystal violet staining based microscopic analysis; assay type: functional, cell-based; details: time 8-15 day
SH-SY5Y [6] = assay: Antiproliferative activity against human SH-SY5Y cells overexpressing MDMX assessed as cell growth inhibition incubated at 10 uM for 72 hrs by CCK-8 assay relative to control; assay type: functional
SH-SY5Y [7] = assay: Reactivation of p53 pathway in human SH-SY5Y cells assessed as increase in p21 level treated at 0.6 to 2.4 uM for 48 hrs measured by Western blotting analysis; assay type: cell-based; details: dose 0.6-2.4 µM
HCT-116 [8] = assay: Induction of apoptosis in human HCT-116 cells assessed as apoptotic cells at 2.4 uM for 48 hrs measured by Annexin V-PI based flow cytometric analysis relative to control; assay type: functional
HCT-116 [9] = assay: Reactivation of p53 pathway in human HCT-116 cells assessed as increase in p53 level treated at 0.6 to 2.4 uM for 48 hrs measured by Western blotting analysis; assay type: cell-based; details: dose 0.6-2.4 µM
SH-SY5Y [10] = assay: Induction of cell cycle arrest in human SH-SY5Y cells assessed as decrease in accumulation of cells at G2 phase incubated at 0.6 to 2.4 uM for 48 hrs by measured by flow cytometric analysis; assay type: functional, cell-based; details: dose 0.6-2.4 µM
SH-SY5Y [11] = assay: Induction of apoptosis in human SH-SY5Y cells assessed as apoptotic cells at 2.4 uM for 48 hrs measured by Annexin V-PI based flow cytometric analysis relative to control; assay type: functional
HCT-116 [12] = assay: Induction of cell cycle arrest in human HCT-116 cells assessed as decrease in accumulation of cells at G2 phase incubated at 0.6 to 2.4 uM for 48 hrs by measured by flow cytometric analysis; assay type: functional, cell-based; details: dose 0.6-2.4 µM
HCT-116 [13] = assay: Induction of apoptosis in human HCT-116 cells assessed as apoptotic cells at 0.6 uM for 48 hrs measured by Annexin V-PI based flow cytometric analysis relative to control; assay type: functional
SH-SY5Y [14] = assay: Inhibition of cell invasion in human SH-SY5Y cells measured using transwell chamber by crystal violet staining based microscopic analysis; assay type: functional; details: dose 0.2-0.6 µM
[15] = target: Cellular tumor antigen p53 (Homo sapiens) (UniProt P04637); assay: Reactivation of p53 pathway in human HCT-116 cells assessed as increase in p21 level treated at 0.6 to 2.4 uM for 48 hrs measured by Western blotting analysis; assay type: cell-based; details: dose 0.6-2.4 µM
[16] = Cytotoxicity against human BEAS-2B cells incubated for 72 hrs by CCK-8 assay; assay type: toxicity, cell-based
SH-SY5Y [17] = assay: Inhibition of cell migration in human SH-SY5Y cells measured using transwell chamber by crystal violet staining based microscopic analysis; assay type: functional; details: dose 0.2-0.6 µM
SJSA-1 = assay: Antiproliferative activity against human SJSA-1 cells overexpressing MDM2 assessed as cell growth inhibition incubated for 72 hrs by CCK-8 assay; assay type: functional, cell-based; details: SJSA-1, 72 h
HCT-116 [18] = assay: Reactivation of p53 pathway in human HCT-116 cells assessed as increase in cleaved caspase 3 level treated at 0.6 to 2.4 uM for 48 hrs measured by Western blotting analysis; assay type: cell-based; details: dose 0.6-2.4 µM
SH-SY5Y [19] = assay: Reactivation of p53 pathway in human SH-SY5Y cells assessed as increase in cleaved caspase 3level treated at 0.6 to 2.4 uM for 48 hrs measured by Western blotting analysis; assay type: cell-based; details: dose 0.6-2.4 µM
SH-SY5Y [20] = assay: Reactivation of p53 pathway in human SH-SY5Y cells assessed as increase in p53 level treated at 0.6 to 2.4 uM for 48 hrs measured by Western blotting analysis; assay type: cell-based; details: dose 0.6-2.4 µM
SH-SY5Y [21] = assay: Induction of apoptosis in human SH-SY5Y cells assessed as apoptotic cells at 0.6 uM for 48 hrs measured by Annexin V-PI based flow cytometric analysis relative to control; assay type: functional
[22] = target: Cellular tumor antigen p53 (Homo sapiens) (UniProt P04637); assay: Reactivation of p53 pathway in human HCT-116 cells assessed as increase in MDM2 level treated at 0.6 to 2.4 uM for 48 hrs measured by Western blotting analysis; assay type: cell-based; details: dose 0.6-2.4 µM
Protein Mdm4 = target: T1, Protein Mdm4 (Homo sapiens, UniProt O15151); assay: Binding affinity to MDMX (1 to 118 residues) (unknown origin) assessed as inhibition constant incubated for 1 hr measured by fluorescence polarization assay
T1 sequence (O15151 whole entry): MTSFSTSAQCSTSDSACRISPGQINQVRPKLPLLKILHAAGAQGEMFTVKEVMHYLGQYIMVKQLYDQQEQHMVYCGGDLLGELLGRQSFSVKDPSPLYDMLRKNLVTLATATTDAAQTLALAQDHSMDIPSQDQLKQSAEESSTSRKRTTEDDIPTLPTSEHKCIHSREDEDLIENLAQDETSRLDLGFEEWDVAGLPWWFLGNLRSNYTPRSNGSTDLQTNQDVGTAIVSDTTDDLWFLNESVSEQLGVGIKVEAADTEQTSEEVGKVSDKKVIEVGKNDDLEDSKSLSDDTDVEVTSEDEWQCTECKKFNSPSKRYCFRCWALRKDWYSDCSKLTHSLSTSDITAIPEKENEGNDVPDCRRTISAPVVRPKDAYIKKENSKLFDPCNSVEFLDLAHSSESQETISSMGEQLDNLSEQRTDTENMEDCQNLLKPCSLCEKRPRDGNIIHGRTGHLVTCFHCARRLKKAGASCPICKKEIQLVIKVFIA

SH-SY5Y [23] = assay: Antiproliferative activity against human SH-SY5Y cells overexpressing MDMX assessed as cell growth inhibition incubated for 72 hrs by CCK-8 assay; assay type: functional, cell-based
SH-SY5Y [24] = assay: Induction of cell cycle arrest in human SH-SY5Y cells assessed as increase in accumulation of cells at G1 phase incubated at 0.6 to 2.4 uM for 48 hrs by measured by flow cytometric analysis; assay type: functional, cell-based; details: dose 0.6-2.4 µM
SH-SY5Y [25] = assay: Reactivation of p53 pathway in human SH-SY5Y cells assessed as increase in MDM2 level treated at 0.6 to 2.4 uM for 48 hrs measured by Western blotting analysis; assay type: cell-based; details: dose 0.6-2.4 µM
HCT-116 [26] = assay: Induction of cell cycle arrest in human HCT-116 cells assessed as increase in accumulation of cells at G1 phase incubated at 0.6 to 2.4 uM for 48 hrs by measured by flow cytometric analysis; assay type: functional, cell-based; details: dose 0.6-2.4 µM
HCT-116 [27] = assay: Inhibition of cell invasion in human HCT-116 cells measured using transwell chamber by crystal violet staining based microscopic analysis; assay type: functional; details: dose 0.2-0.6 µM
[28] = target: Cellular tumor antigen p53 (Homo sapiens) (UniProt P04637); assay: Reactivation of p53 pathway in human HCT-116 cells assessed as increase in MDMX level treated at 0.6 to 2.4 uM for 48 hrs measured by Western blotting analysis; assay type: cell-based; details: dose 0.6-2.4 µM
HCT-116 [29] = assay: Inhibition of cell migration in human HCT-116 cells measured using transwell chamber by crystal violet staining based microscopic analysis; assay type: functional; details: dose 0.2-0.6 µM
[30] = target: E3 ubiquitin-protein ligase Mdm2 (Homo sapiens, UniProt Q00987); assay: Binding affinity to MDM2 (1 to 118 residues) (unknown origin) assessed as inhibition constant incubated for 1 hr measured by fluorescence polarization assay
[31] = target: Tumour suppressor p53/oncoprotein Mdm2 (Homo sapiens) (UniProt P04637+Q00987); assay: Inhibition of protein binding in p53/MDM2 in human HCT116 cells assessed as disruption of protein-protein interaction measured at 1.2 uM for 48 hrs by co-immunoprecipitation based Western blotting analysis; assay type: cell-based; details: HCT-116
[32] = Cytotoxicity against human LO2 cells incubated for 72 hrs by CCK-8 assay; assay type: toxicity, cell-based, L02
SH-SY5Y [33] = assay: Reactivation of p53 pathway in human SH-SY5Y cells assessed as increase in MDMX level treated at 0.6 to 2.4 uM for 48 hrs measured by Western blotting analysis; assay type: cell-based; details: dose 0.6-2.4 µM

Chain of Cellular tumor antigen p53 (Homo sapiens) (P04637 whole entry, looked up, the tested form may be a part): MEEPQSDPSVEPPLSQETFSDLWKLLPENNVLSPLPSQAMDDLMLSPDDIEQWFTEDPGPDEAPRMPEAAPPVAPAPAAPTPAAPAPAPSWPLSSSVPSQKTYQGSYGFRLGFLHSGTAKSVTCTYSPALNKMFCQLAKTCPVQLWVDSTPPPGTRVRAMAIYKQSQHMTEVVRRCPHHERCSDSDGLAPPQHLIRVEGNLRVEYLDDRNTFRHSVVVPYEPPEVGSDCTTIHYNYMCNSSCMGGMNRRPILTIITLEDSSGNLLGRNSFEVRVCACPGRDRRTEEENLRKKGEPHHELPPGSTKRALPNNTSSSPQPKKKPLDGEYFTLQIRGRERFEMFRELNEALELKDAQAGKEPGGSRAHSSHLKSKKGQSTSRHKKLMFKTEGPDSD
Chain of E3 ubiquitin-protein ligase Mdm2 (Q00987 whole entry, the tested form may be a part): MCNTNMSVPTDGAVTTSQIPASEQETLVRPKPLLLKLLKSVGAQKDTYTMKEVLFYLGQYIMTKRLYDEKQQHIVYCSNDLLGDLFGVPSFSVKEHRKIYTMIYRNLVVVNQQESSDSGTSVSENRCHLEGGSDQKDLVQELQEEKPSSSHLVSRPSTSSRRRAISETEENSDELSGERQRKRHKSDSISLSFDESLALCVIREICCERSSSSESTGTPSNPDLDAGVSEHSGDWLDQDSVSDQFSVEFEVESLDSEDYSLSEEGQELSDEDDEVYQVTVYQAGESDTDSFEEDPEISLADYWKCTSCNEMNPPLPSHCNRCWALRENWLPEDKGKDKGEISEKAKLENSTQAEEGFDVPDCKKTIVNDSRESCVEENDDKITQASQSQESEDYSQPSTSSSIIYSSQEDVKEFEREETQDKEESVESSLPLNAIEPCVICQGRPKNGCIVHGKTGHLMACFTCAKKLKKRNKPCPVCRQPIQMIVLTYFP
Chain of Tumour suppressor p53/oncoprotein Mdm2 (Homo sapiens) (P04637 whole entry, looked up): as the sequence (P04637 whole entry, looked up, the tested form may be a part) above
Chain of Tumour suppressor p53/oncoprotein Mdm2 (Homo sapiens) (Q00987 whole entry, looked up): as the sequence (Q00987 whole entry, the tested form may be a part) above

COc1ccc(C2=N[C@H](c3ccc(Cl)cc3)[C@H](c3ccc(Cl)cc3)N2C(=O)N2CCNC(=O)C2)c(OC(C)C)c1
IC50 (HCT-116 [1]): 11.3 µM
inhibition at 10 µM (HCT-116 [2]): 49.2%
inhibition (HCT-116 [3]): Active
IC50 [4]: 29.5 µM
inhibition (SH-SY5Y [5]): Active
inhibition at 10 µM (SH-SY5Y [6]): 46.5%

O=C(c1ccc(Cl)cc1)C(c1ccc(F)cc1Cl)N(C(=O)CCC(=O)N1CCNCC1)c1ccc(Cl)cc1 (stereo not drawn)
Activity (SH-SY5Y [7]): Active
Activity (HCT-116 [8]): 37.6%
Activity (HCT-116 [9]): Active
Activity (SH-SY5Y [10]): Active
Activity (SH-SY5Y [11]): 40.8%
Activity (HCT-116 [12]): Active
Activity (HCT-116 [13]): 13.63%
inhibition (SH-SY5Y [14]): Dose-Dependent Effect
Activity [15]: Active
IC50 at 72 h [16]: 18 µM
inhibition (SH-SY5Y [17]): Dose-Dependent Effect
IC50 (HCT-116 [1]): 0.68 µM
IC50 (SJSA-1): 0.58 µM
Activity (HCT-116 [18]): Active
Activity (SH-SY5Y [19]): Active
Activity (SH-SY5Y [20]): Active
Activity (SH-SY5Y [21]): 15.69%
Activity [22]: Active
Ki (Protein Mdm4): 2.45 µM
IC50 (SH-SY5Y [23]): 0.54 µM
Activity (SH-SY5Y [24]): Active
Activity (SH-SY5Y [25]): Active
Activity (HCT-116 [26]): Active
inhibition (HCT-116 [3]): Active
inhibition (HCT-116 [27]): Dose-Dependent Effect
Activity [28]: Active
inhibition (HCT-116 [29]): Dose-Dependent Effect
Ki [30]: 0.23 µM
inhibition [31]: Active
IC50 [4]: 14 µM
inhibition (SH-SY5Y [5]): Active
IC50 at 72 h [32]: 15.9 µM
Activity (SH-SY5Y [33]): Active

COC(=O)c1ccc(C(=O)N(c2ccc(Cl)cc2)C(C(=O)c2ccc(Cl)cc2)c2ccc(F)cc2Cl)cc1 (stereo not drawn)
IC50 (HCT-116 [1]): 8.86 µM
IC50 (SJSA-1): 10.2 µM
Ki (Protein Mdm4): 12.9 µM
IC50 (SH-SY5Y [23]): 7.33 µM
Ki [30]: 1.06 µM
IC50 [4]: 20.8 µM

O=C(CCC(=O)N(c1ccc(Cl)cc1)C(C(=O)c1ccc(Cl)cc1)c1ccc(F)cc1Cl)NCCN1CCOCC1 (stereo not drawn)
IC50 (HCT-116 [1]): 7.69 µM
IC50 (SJSA-1): 6.74 µM
Ki (Protein Mdm4): 13 µM
IC50 (SH-SY5Y [23]): 5.44 µM
Ki [30]: 0.56 µM
IC50 [4]: 28.4 µM

CCN1CCN(C(=O)CCC(=O)N(c2ccc(Cl)cc2)C(C(=O)c2ccc(Cl)cc2)c2ccc(F)cc2Cl)CC1 (stereo not drawn)
IC50 (HCT-116 [1]): 6.24 µM
IC50 (SJSA-1): 5.93 µM
Ki (Protein Mdm4): 9.37 µM
IC50 (SH-SY5Y [23]): 5.82 µM
Ki [30]: 0.69 µM
IC50 [4]: 20.9 µM

COC(=O)c1ccc(NC(=O)CCC(=O)N(c2ccc(Cl)cc2)C(C(=O)c2ccc(Cl)cc2)c2ccc(F)cc2Cl)cc1 (stereo not drawn)
IC50 (HCT-116 [1]): 14 µM
IC50 (SJSA-1): 13.9 µM
Ki (Protein Mdm4): 29.1 µM
IC50 (SH-SY5Y [23]): 13 µM
Ki [30]: 0.96 µM
IC50 [4]: 23.1 µM
